Experimental data reported in patent US10577610B2, “EpCAM aptamers and conjugates thereof” (Deakin University, priority 2015, dated 2020).
[invdT] = inverted (3'-3') thymidine; {TYE665} = TYE665 fluorescent dye

Experiments:
[1] = molecular target: T1, native EpCAM protein expressed on the cell surface (HT29 cells) (Homo sapiens, UniProt P16422); assay: Flow cytometry binding assay on HT29 cells (EpCAM-positive); details: n=3
T1 construct: endogenous in cells; host or cells: HT29 cells
T1 sequence (P16422 24-314): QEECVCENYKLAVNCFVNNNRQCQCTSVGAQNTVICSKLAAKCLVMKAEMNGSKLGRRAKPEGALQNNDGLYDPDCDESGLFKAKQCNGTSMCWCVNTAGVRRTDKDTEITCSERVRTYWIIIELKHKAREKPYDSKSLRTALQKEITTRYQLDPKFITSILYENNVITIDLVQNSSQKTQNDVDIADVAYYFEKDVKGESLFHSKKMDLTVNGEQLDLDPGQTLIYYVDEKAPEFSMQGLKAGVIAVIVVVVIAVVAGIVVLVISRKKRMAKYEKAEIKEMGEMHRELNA
Method: (§1) The equilibrium dissociation constant (KD) of each DNA EpCAM aptamer (Ep7, Ep8 and Ep9) was determined by measuring its binding to native EpCAM protein expressed on the cell surface using flow cytometry. HT29, HEY and HEK293T (5×10^5) cells were first incubated with blocking buffer (PBS containing 10% FCS, 1 mg/mL tRNA, 1 mg/mL BSA) for 30 minutes followed by a single wash with binding buffer (PBS containing 10% FCS, 1 mg/mL tRNA, 1 mg/mL BSA) prior to incubation with serial dilutions of concentrations of the respective TYE665-labelled aptamers (0 to 200 nM) in binding buffer for 30 min at 37° C. The cells were washed three times with PBS and resuspended in PBS prior to flow cytometric analysis. The fluorescent intensity was determined using a FACS Canto II flow cytometer (Becton Dickinson), counting 10,000 events for each sample. The mean fluorescent intensity of each concentration was […] the auto fluorescent control and the KD for each aptamer was calculated from the normalised values for fluorescent intensity.

[2] = molecular target: T2, native EpCAM protein expressed on the cell surface (HEY cells) (Homo sapiens, UniProt P16422); assay: Flow cytometry binding assay on HEY cells (EpCAM-positive); details: HEY (EpCAM-positive) cells, flow cytometry, n=3
T2 construct: host or cells: HEY ovarian cancer cells
T2 sequence (P16422 24-314): T1 sequence (P16422 24-314)
Method: In order to determine the binding affinity (equilibrium dissociation constant KD) of the aptamers. Binding assays were conducted to measure the binding to native EpCAM protein expressed on the cell surface. The aptamers were incubated with the cells at concentrations ranging from 0 nM to 400 nM. These were subsequently analysed by flow cytometry. Aptamers were thawed from storage (−20° C.) prior to use. These were then diluted via serial dilutions with phosphate buffered saline (PBS) in order to achieve the desired concentrations. PBS was supplemented with a MgCl2 concentration appropriate for the aptamer (1 mM for anti-TfR aptamers; 5 mM for conjugate aptamers). Aptamers were then folded into their 3D structures using a thermocycler (85° C. for 5 minutes, slow cooling to 22° C. over 10 minutes and 37° C. for 15 minutes).
Concurrently, subcultured cells were incubated in blocking buffer (PBS with 10% FCS, 1 mg/mL BSA, 0.1 mg/mL tRNA) for 30 minutes. Following centrifugation, blocking buffer was removed and cells were resuspended in binding buffer (PBS with 10% FCS, 1 mg/mL BSA, 0.1 mg/mL tRNA). Cells (50 μL) were then incubated with the aptamers (50 μL) for 30 minutes at 37° C. at a range of concentrations (0 nM, 20 nM, 40 nM, 60 nM, 80 nM, 100 nM, 200 nM, 400 nM). Following this, cells were washed in 100 μL PBS three times before final resuspension for flow cytometry.
Aptamers were incubated with the chosen cell lines (bEnd.3 cells, mouse cells positive for TfR; HEY cells, human ovarian cancer cell line positive for EpCAM; and MOLT4 human cells negative for both TfR and EpCAM) at a range of concentrations. Aptamer-bound cells were analysed using a FACS Canto II flow cytometer (Becton Dickinson), counting 10,000 events for each sample, in order to determine the binding affinity of the aptamers. […] The value for the auto fluorescent 0 nM concentration was subtracted from the other figures to account for background fluorescence (Li N et al (2009) Journal of Proteome Research 8(5):2438-48). The resultant values were then used to determine the dissociation constant (KD) via the Graph Pad Prism 3 software. […]
The binding affinities of aptamers Bi1, Bi2 and Bi3 were determined semi-quantitatively via flow cytometry, using bEnd.3 cells to assess reactivity with TfR, HEY cells to determine EpCAM specificity and the MOLT4 cell line as a negative control. Three independent binding assays were performed for these aptamer against all three cell lines (bEnd.3, HEY and MOLT4). […]

[3] = Doxorubicin loading efficiency by fluorescence spectroscopy; details: mean±SEM
From the text: The anthracycline class of drugs, including DOX, have fluorescence properties that become quenched after intercalation into DNA (Valentini L et al (1985) II Farmaco edizione scientifica 40(6):377-90. The natural fluorescence of doxorubicin and its subsequent quenching after intercalating with the DNA EpCAM aptamers was utilised for the measurement of the extent of doxorubicin conjugation via Fluorescent Spectroscopy. The conjugation process was studied using different aptamer-doxorubicin molar ratios (0, 0.01, 0.04, 0.08, 0.1, 0.2, 0.3, 0.4, 0.5, and 0.6) and analysed with a fluorescence plate reader based on a standard curve of free doxorubicin.
Prior to conjugation, aptamers were prepared for application as previously described. DOX was then combined with aptamer in conjugation buffer containing 0.1 M sodium acetate, 0.05 M NaCl, and 5 mM MgCl2 and incubated at 37° C. in an Orbital mixer/incubator (RATEK) for 1 hour with agitation (75 r.p.m). The conjugate was then passed through a Sephadex®G-10 medium column (Sigma-Aldrich) to separate the aptamer: doxorubicin conjugate from free DOX. As DOX has a natural fluorescence which is subsequently quenched following intercalation into double stranded DNA, this characteristic of DOX was exploited to determine the amount of DOX that was intercalated into the double stranded stem region of the conjugate aptamers. After column separation, DOX was extracted from the conjugate yield by adding 150 uL of acetonitrile. This solution was then centrifuged for 5 min at 21,000 g. Eighty microliters of supernatant was removed and fluorescent intensity was quantified with a fluorescent plate reader. A calibration standard curve was prepared with known concentrations of DOX under the same condition
Data was analysed using Graph Pad Prism 3 and data was reported as mean and standard error of the mean (mean±SEM) unless otherwise stated.

HT29 and HEY cells = assay: Confocal microscopy internalisation of EpCAM aptamers into EpCAM positive cells; assay type: cell-based; details: 200 nM, 60 min
Method: The ability of each DNA EpCAM aptamer to be internalised was established through confocal microscopy. HT29, HEY, K652 and HEK293T were seeded at 8×10^5 cells per well in 8-chamber slide for 24 h in preparation for confocal […]. Cells were incubated with blocking buffer for 60 min, followed by resuspension in binding buffer and containing 200 nM EpCAM aptamer or negative control aptamer and incubated for 60 min at 37° C. Bisbenzimide Hoechst 33342 (3 mg/ml) (Sigma) was added to the cells during the final 10 min of incubation. The aptamer solution was removed and the cells were washed three times for 5 min each in PBS prior to visualisation using a FluoView FV10i laser scanning confocal microscope (Olympus).

HEK293T and K562 = assay: Flow cytometry binding to EpCAM negative cell lines; details: HEK293T and K562, 0 and 100 nM
Method: as §1

mouse TfR = molecular target: T3, mouse TfR (Mus musculus, UniProt Q62351); assay: Flow cytometry binding assay on bEnd.3 cells (TfR-positive); details: bEnd.3 (TfR-positive) cells, n=3
T3 construct: bEnd.3 cells, mouse cells positive for TfR; host or cells: bEnd.3 mouse cerebral endothelial cells
Method: In order to determine the binding affinity (equilibrium dissociation constant KD) of the aptamers. Binding assays were conducted to measure the binding to native EpCAM protein expressed on the cell surface. The aptamers were incubated with the cells at concentrations ranging from 0 nM to 400 nM. These were subsequently analysed by flow cytometry. Aptamers were thawed from storage (-20° C.) prior to use. These were then diluted via serial dilutions with phosphate buffered saline (PBS) in order to achieve the desired concentrations. PBS was supplemented with a MgCl2 concentration appropriate for the aptamer (1 mM for anti-TfR aptamers; 5 mM for conjugate aptamers). […] Concurrently, subcultured cells were incubated in blocking buffer (PBS with 10% FCS, 1 mg/mL BSA, 0.1 mg/mL tRNA) for 30 minutes. Following centrifugation, blocking buffer was removed and cells were resuspended in binding buffer (PBS with 10% FCS, 1 mg/mL BSA, 0.1 mg/mL tRNA). Cells (50 μL) were then incubated with the aptamers (50 μL) for 30 minutes at 37° C. at a range of concentrations (0 nM, 20 nM, 40 nM, 60 nM, 80 nM, 100 nM, 200 nM, 400 nM). Following this, cells were washed in 100 μL PBS three times before final resuspension for flow cytometry. Aptamers were incubated with the chosen cell lines (bEnd.3 cells, mouse cells positive for TfR; HEY cells, human ovarian cancer cell line positive for EpCAM; and MOLT4 human cells negative for both TfR and EpCAM) at a range of concentrations. Aptamer-bound cells were analysed using a FACS Canto II flow cytometer (Becton Dickinson), counting 10,000 events for each sample, in order to determine the binding affinity of the aptamers. […] The value for the auto fluorescent 0 nM concentration was subtracted from the other figures to account for background fluorescence (Li N et al (2009) Journal of Proteome Research 8(5):2438-48). […] The binding affinities of aptamers TfR1, TfR2, […] determined semi-quantitatively via flow cytometry, using bEnd.3 mouse cerebral endothelial cells as a Tf R-positive cell line and MOLT4 acute lymphoblastic leukaemia cells-which express the human TfR, but not the mouse TfR (Sutherland R et al (1981) PNAS 78(7):4515-9)-as a negative control. Three independent binding assays were performed for each aptamer against each cell line. […] Three independent binding assays were performed for these aptamer against all three cell lines (bEnd.3, HEY and MOLT4).

T3 sequence (Q62351 whole entry): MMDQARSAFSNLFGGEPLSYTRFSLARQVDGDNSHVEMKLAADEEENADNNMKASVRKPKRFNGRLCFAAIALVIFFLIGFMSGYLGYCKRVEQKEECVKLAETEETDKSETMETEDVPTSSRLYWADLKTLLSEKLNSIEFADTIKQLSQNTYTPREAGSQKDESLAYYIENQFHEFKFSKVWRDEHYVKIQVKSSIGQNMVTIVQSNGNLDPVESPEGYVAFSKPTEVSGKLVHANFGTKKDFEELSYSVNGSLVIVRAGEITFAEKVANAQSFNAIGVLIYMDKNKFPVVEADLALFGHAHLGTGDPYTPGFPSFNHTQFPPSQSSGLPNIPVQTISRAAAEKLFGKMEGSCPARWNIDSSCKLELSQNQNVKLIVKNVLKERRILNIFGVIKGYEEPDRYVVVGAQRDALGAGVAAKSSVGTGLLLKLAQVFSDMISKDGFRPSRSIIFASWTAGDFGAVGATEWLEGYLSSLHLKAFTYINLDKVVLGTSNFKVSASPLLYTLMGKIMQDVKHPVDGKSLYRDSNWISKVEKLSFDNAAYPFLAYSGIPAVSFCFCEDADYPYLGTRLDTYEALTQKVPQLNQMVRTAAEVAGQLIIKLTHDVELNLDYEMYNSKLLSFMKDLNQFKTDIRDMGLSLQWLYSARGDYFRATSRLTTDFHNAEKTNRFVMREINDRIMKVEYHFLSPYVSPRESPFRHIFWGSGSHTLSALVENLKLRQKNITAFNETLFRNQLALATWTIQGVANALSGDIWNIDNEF

Row | Substance | Kd [1] [nM] | Kd [2] [nM] | Molar ratio aptamer:dox [3] | Internalisation by EpCAM positive cells (HT29 and HEY cells) | Binding to EpCAM negative cell lines (HEK293T and K562) | Kd (mouse TfR) [nM]
1 | 5′ CACTACAGAGGTTGCGTCTGTCCCACGTTGTCATGGGGGGTTGGCCTG 3′ (CACTACAGAGGTTGCGTCTGTCCCACGTTGTCATGGGGGGTTGGCCTG; listed as DNA, chemistry not fully specified) [Full length EpCAM aptamer, reference compound] | 9 ± 1.68 | 495 ± 147 | 0.53 ± 0.13 | – | – | –
2 | Ep7: truncated DNA EpCAM aptamer derived from SYL3C, SEQ ID NO:9 (ACAGAGGTTGCGTCTG; DNA, [invdT] at 3' end, 5' {TYE665}, backbone not given here) | 11 ± 2.79 | 248 ± 82.2 | 0.42 ± 0.11 | internalised | did not bind | –
3 | Ep8: truncated DNA EpCAM aptamer derived from SYL3C, SEQ ID NO:11 (CCCACGTTGTCATGGG; DNA, 5' {TYE665}, 3' [invdT], backbone not given here) | 6.19 ± 2.24 | 696 ± 486 | 0.38 ± 0.06 | internalised | did not bind | –
4 | Ep9: truncated DNA EpCAM aptamer derived from SYL3C, SEQ ID NO:12 (GGGGTTGGCCCC; DNA, 5' {TYE665}, 3' [invdT], backbone not given here) | 31.8 ± 7.65 | 266 ± 121 | 0.35 ± 0.06 | internalised | did not bind | –
5 | Ex Ep7: extended Ep7 aptamer with the same binding loop as Ep7, SEQ ID NO:13 (CGCGCGCCGCAGGTTGCGTGCGGCGCGCG; DNA, 5' {TYE665}, 3' [invdT], backbone not given here) | – | 63.7 ± 14.4 | 1.17 ± 0.02 | internalised | – | –
6 | Scr Ex Ep7: scrambled extended Ep7 aptamer with randomly selected base pairs in the binding loop, SEQ ID NO:14 (CGCGCGCCGCATTCCTTTTGCGGCGCGCG; DNA, 5' {TYE665}, 3' [invdT], backbone not given here) | – | 521 ± 272 | 1.01 ± 0.01 | not internalised | – | –
7 | TfR1: truncated fourteen nucleotide DNA aptamer against mouse TfR, SEQ ID NO:4 (GCGTGTGCACACGC; DNA, backbone not given here; further chemistry not fully specified) | – | – | – | – | – | 5760 ± 7120
8 | TfR2: version of TfR1 with scrambled binding loop sequence, SEQ ID NO:5 (DNA GCGTGGGCCCACGC; DNA, backbone not given here; further chemistry not fully specified) | – | – | – | – | – | 525 ± 161
